The text below walks through data of patent publication US20240391862A1, “(1,4,5-TRISUBSTITUTED-1H-PYRAZOL-3-YL)OXY-2-ALKOXY ALKYL ACIDS AND THEIR DERIVATIVES, THEIR SALTS AND THEIR USE AS HERBICIDAL AGENTS” (Bayer AKtiengesellschaft, priority 2021, published 2024).

The test system of experiment [1] is ECHCG. The experiment in a line: Post-emergence herbicidal effect, greenhouse pot test. Format: in vivo, Echinochloa crus-galli. The essentials: (§1)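 Weeds sown in sandy loam, greenhouse-grown 2–3 weeks, then sprayed at one-leaf stage with WP or EC formulations in water plus 0.5% additive at 600 l/ha. Rates 20 to 320 g/ha. Visual rating after about 3 weeks versus untreated controls (100% = plants dead, 0% = like control).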

Experiment [2] deals with ALOMY. The description is as above. Format: in vivo, Alopecurus myosuroides. The conditions noted are these: 320 g/ha, visual rating about 3 weeks after treatment. The essentials:
as §1

For experiment [3], the system named is KCHSC. Described as above. It counts as in vivo. The conditions noted are these: 320 g/ha. The essentials: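 Greenhouse plants in sandy loam, sprayed post-emergence at the one-leaf stage (2–3 weeks after sowing) with WP or EC formulations in water plus 0.5% additive at 600 l/ha. Rates 20 to 320 g/ha. Activity rated visually after about 3 weeks against untreated controls (0% like control, 100% dead).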

The subject of experiment [4] is DIGSA. The description is as above. To be noted: visual rating about 3 weeks after treatment. Format: in vivo, Digitaria sanguinalis. The essentials: as §1
The subject of experiment [5] is ZEAMX. Put plainly: Post-emergence herbicidal effect and crop plant compatibility, greenhouse pot test. Format: in vivo, Zea mays. The conditions noted are these: one-leaf stage, rated visually after about 3 weeks vs untreated controls; for plant injury at 20 g/ha: Zea mays, 504 h, read-out: Post-emergence effect at 20 g/ha against ZEAMX in %. The essentials: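 Sandy loam pots, greenhouse. One-leaf stage (2–3 wk after sowing) foliar spray; WP/EC in water + 0.5% additive, 600 l/ha; 20–320 g/ha. Visual score ~3 wk, 0–100% vs untreated.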

In experiment [6] the test system is AMARE. The experiment in a line: Post-emergence herbicidal effect, greenhouse pot test. It counts as in vivo, Amaranthus retroflexus. The conditions noted are these: 320 g/ha, visual rating about 3 weeks after treatment. The essentials: as §1
Experiment [7] relates to SETVI. The description is as above. Format: in vivo, Setaria viridis. The essentials:
as §1

The test system of experiment [8] is AVEFA. The description is as above. Format: in vivo, Avena fatua. To be noted: 320 g/ha, visual rating about 3 weeks after treatment. The essentials:
as §1

Experiment [9] deals with PHBPU. Described as above. Format: in vivo, Ipomoea purpurea. The essentials:
as §1

The test system of experiment [10] is ABUTH. Described as above. It counts as in vivo, Abutilon theophrasti. The conditions noted are these: visual rating about 3 weeks after treatment. In outline:
as §1

Experiment [11] deals with TRZAS. Put plainly: Post-emergence herbicidal effect and crop plant compatibility, greenhouse pot test. Format: in vivo, Triticum aestivum. To be noted: 20 g/ha, one-leaf stage, rated visually after about 3 weeks vs untreated controls; for percent crop injury (phytotoxicity) to wheat, post-emergence at 20 g/ha: Triticum aestivum, 504 h, read-out: Post-emergence effect at 20 g/ha against TRZAS in %. An excerpt: • ALOMY: Alopecurus myosuroides SETVI: Setaria viridis • AVEFA: Avena fatua POLCO: Fallopia convolvulus • AMARE: Amaranthus retroflexus ECHCG: Echinochloa crus-galli • LOLRJ: Lolium rigidum STEME: Stellaria media • VERPE: Veronica persica MATIN: Tripleurospermum inodorum • DIGSA: Digitaria sanguinalis ABUTH: Abutylon threophrasti • TRZAS: Triticum aestivum VIOTR: Viola tricolor • BRSNW: Brassica napus ZEAMX: Zea mays • PHBPU: Ipomoea purpurea GLXMA: Glycine max • ORYSA: Oryza sativa HORMU: Hordeum murinum
Seeds of monocotyledonous and dicotyledonous weeds and crop plants are placed in sandy loam in plastic or organic planting pots, covered with soil and cultivated in a greenhouse under controlled growth conditions. 2 to 3 weeks after sowing, the trial plants are treated at the one-leaf stage. The compounds of the invention, formulated in the form of wettable powders (WP) or as emulsion concentrates (EC), are then sprayed onto the green parts of the plants as aqueous suspension or emulsion with addition of 0.5% additive at a water application rate of 600 l/ha (converted). After the test plants have been kept in the greenhouse under optimum growth conditions for about 3 weeks, the activity of the preparations is rated visually in comparison to untreated controls. For example, 100% activity=the plants have died, 0% activity=like control plants.
Tables 20a to 38c below show the effects/crop compatibilities of selected compounds of the general formula (I) on various harmful plants at an application rate corresponding to 20 to 320 g/ha, which were obtained by the trial procedure specified above.

Experiment [12] has as its system POLCO. The experiment in a line: Post-emergence herbicidal effect, greenhouse pot test. It counts as in vivo, Fallopia convolvulus. In outline:
as §1

For experiment [13], the system named is MATIN. Described as above. Format: in vivo, Tripleurospermum inodorum. The essentials: as §1
Experiment [14] relates to VERPE. Described as above. Format: in vivo, Veronica persica. In outline: as §1
The test system of experiment [15] is VIOTR. The experiment is described as above. Format: in vivo, Viola tricolor. The essentials:
as §1

With `COC(=O)CCOC(=O)C(OC)Oc1nn(-c2ncccc2F)c(-c2ccc(F)nc2)c1C1CC1` (single isomer, unassigned) [Example I-81], the “Post-emergence effect against ECHCG in %” value in experiment [1] (320 g/ha) was determined as 90%. The “Post-emergence effect against ALOMY” value in experiment [2] stood at 90%. Also, the “Post-emergence effect against KCHSC in %” value in [3] worked out at 90%. Further, in [4] (320 g/ha), the “Post-emergence effect against DIGSA” value was 80%. In addition, the “Post-emergence effect at 20 g/ha against ZEAMX in %” value in experiment [5] was 0%. For the same compound, in experiment [5] (80 g/ha), the “Post-emergence effect at 80 g/ha against ZEAMX in %” value turned out to be 0%. Besides, the “Post-emergence effect against AMARE” value in experiment [6] is reported as 80%. The “Post-emergence effect against SETVI in %” value in [7] (320 g/ha) was determined as 90%. The “Post-emergence effect against AVEFA” value in experiment [8] was 90%. For the same compound, the “Post-emergence effect against PHBPU in %” value in experiment [9] (320 g/ha) was 80%. The “Post-emergence effect against ABUTH” value in experiment [10] (320 g/ha) was determined as 90%. In experiment [11], the “Post-emergence effect at 20 g/ha against TRZAS in %” value is 0%. Further, in experiment [12] (320 g/ha), the “Post-emergence effect against POLCO in %” value is 90%.

`CCOC(Oc1nn(-c2ccccc2F)c(-c2ccc(F)nc2)c1Br)C(=O)OCCC(=O)OC` (single isomer, unassigned) [Example I-64, Methyl 3-{[(2R*)-2-{[4-bromo-1-(2-fluorophenyl)-5-(6-fluoropyridin-3-yl)-1H-pyrazol-3-yl]oxy}-2-ethoxyethanoyl]oxy}propanoate]: the “Post-emergence effect against ECHCG in %” value was found to be 80% in [1] (80 g/ha) and 90% in experiment [1] (320 g/ha). In experiment [2], the “Post-emergence effect against ALOMY” value is listed as 90%. In addition, the “Post-emergence effect against KCHSC in %” value in experiment [3] is 90%. For the same compound, in [4] (320 g/ha), the “Post-emergence effect against DIGSA” value was 80%. The plant injury at 20 g/ha in [5] is 20%. Besides, the “Post-emergence effect against SETVI in %” value in experiment [7] (320 g/ha) came out at 90%. The “Post-emergence effect against AVEFA” value in experiment [8] is listed as 90%. Moreover, the “Post-emergence effect against PHBPU in %” value was found to be 80% in experiment [9] (80 g/ha) and 90% in experiment [9] (320 g/ha). The “Post-emergence effect against ABUTH” value in experiment [10] (320 g/ha) was found to be 80%. Moreover, the “Post-emergence effect against MATIN in %” value in experiment [13] (320 g/ha) is 80%. Besides, the “Post-emergence effect against VERPE in %” value in experiment [14] (80 g/ha) and in [14] (320 g/ha) was 80% throughout. Further, the percent crop injury (phytotoxicity) to wheat, post-emergence at 20 g/ha in [11] came out at 10%.

As for `CCOC(Oc1nn(-c2ccccc2F)c(-c2ccc(F)nc2)c1Br)C(=O)OCCC(=O)OC` (single isomer, unassigned) [Example I-59, Methyl 3-{[(2RS)-2-{[4-bromo-1-(2-fluorophenyl)-5-(6-fluoropyridin-3-yl)-1H-pyrazol-3-yl]oxy}-2-ethoxyethanoyl]oxy}propanoate], the pest or weed control at 80 g/ha in experiment [1] (Echinochloa crus-galli, 504 h, 80 g/ha, read-out: Post-emergence effect against ECHCG in %) is 90%; in experiment [15] (Viola tricolor, 504 h, 80 g/ha, read-out: Post-emergence effect against VIOTR in %), 90%; in [4] (Digitaria sanguinalis, 504 h, 80 g/ha, read-out: Post-emergence effect against DIGSA), 80%; in experiment [7] (Setaria viridis, 504 h, 80 g/ha, read-out: Post-emergence effect against SETVI in %) it was 80%; in experiment [9] (Ipomoea purpurea, 504 h, 80 g/ha, read-out: Post-emergence effect against PHBPU in %), 90%; in [10] (Abutilon theophrasti, 504 h, 80 g/ha, read-out: Post-emergence effect against ABUTH), 90%. In [14] (Veronica persica, 504 h, 80 g/ha, read-out: Post-emergence effect against VERPE in %), the pest or weed control at 80 g/ha is 80%. In addition, the pest or weed control at 320 g/ha in experiment [1] (Echinochloa crus-galli, 504 h, 320 g/ha, read-out: Post-emergence effect against ECHCG in %) came to 90%; in [2] (Alopecurus myosuroides, 504 h, read-out: Post-emergence effect against ALOMY) it was 90%; in experiment [15] (Viola tricolor, 504 h, 320 g/ha, read-out: Post-emergence effect against VIOTR in %) it was 90%; in experiment [3] (504 h, read-out: Post-emergence effect against KCHSC in %), 80%; in experiment [4] (Digitaria sanguinalis, 504 h, 320 g/ha, read-out: Post-emergence effect against DIGSA), 90%; in [7] (Setaria viridis, 504 h, 320 g/ha, read-out: Post-emergence effect against SETVI in %) it was 90%. Further, the pest or weed control at 320 g/ha in [8] (Avena fatua, 504 h, read-out: Post-emergence effect against AVEFA) amounted to 80%; in experiment [9] (Ipomoea purpurea, 504 h, 320 g/ha, read-out: Post-emergence effect against PHBPU in %), 90%; in [10] (Abutilon theophrasti, 504 h, 320 g/ha, read-out: Post-emergence effect against ABUTH) it was 90%; in [13] (Tripleurospermum inodorum, 504 h, 320 g/ha, read-out: Post-emergence effect against MATIN in %) it was 80%; in experiment [14] (Veronica persica, 504 h, 320 g/ha, read-out: Post-emergence effect against VERPE in %), 80%. The plant injury at 20 g/ha in [5] worked out at 20%. For the same compound, the percent crop injury (phytotoxicity) to wheat, post-emergence at 20 g/ha in experiment [11] amounted to 0%.

Turning to `CCOC(Oc1nn(-c2ccccc2F)c(-c2ccc(F)nc2)c1Cl)C(=O)OCC(C)C(=O)OC` (racemic) [Example I-54], the “Post-emergence effect against ECHCG” value in experiment [1] (20 g/ha, visual rating about 3 weeks after treatment) is reported as 80%. Moreover, the “Post-emergence effect against ECHCG in %” value in experiment [1] (80 g/ha) and in experiment [1] (320 g/ha) was 90% each time. Moreover, the “Post-emergence effect against ALOMY” value in experiment [2] is recorded as 100%. Further, the “Post-emergence effect against VIOTR in %” value in experiment [15] (80 g/ha) and in experiment [15] (320 g/ha) was 80% in each case. In addition, in [3], the “Post-emergence effect against KCHSC in %” value was found to be 80%. In [4] (320 g/ha), the “Post-emergence effect against DIGSA” value is 90%. Besides, the “Post-emergence effect at 20 g/ha against ZEAMX in %” value in experiment [5] was 0%. For the same compound, the “Post-emergence effect against AMARE” value in experiment [6] came out at 80%. The “Post-emergence effect against SETVI in %” value in experiment [7] (80 g/ha) is on record as 80%; in experiment [7] (320 g/ha), 90%. For the same compound, the “Post-emergence effect against AVEFA” value in experiment [8] worked out at 90%. For the same compound, the “Post-emergence effect against PHBPU in %” value in experiment [9] (80 g/ha) and in experiment [9] (320 g/ha) was 90% each time. Also, the “Post-emergence effect against ABUTH” value in experiment [10] (320 g/ha) stood at 80%. In addition, the figures for the “Post-emergence effect against MATIN in %” value in [13] (20 g/ha), in experiment [13] (80 g/ha) and in [13] (320 g/ha) were 80%, 90% and 90%, respectively. Also, the figures for the “Post-emergence effect against VERPE in %” value in experiment [14] (20 g/ha), in experiment [14] (80 g/ha) and in [14] (320 g/ha) were 80%, 80% and 90%, respectively. Also, in [11], the “Post-emergence effect at 20 g/ha against TRZAS in %” value is recorded as 0%. Also, the “Post-emergence effect against POLCO in %” value in experiment [12] (80 g/ha) and in experiment [12] (320 g/ha) was 80% throughout.
